According to patent US11919902B2, “Aryl-bipyridine amine derivatives as phosphatidylinositol phosphate kinase inhibitors” (HiberCell, Inc., priority 2017, dated 2024):

Columns and labels:
GST tagged PIP4KtypeIIB = target: T1, GST tagged PIP4KtypeIIB (Homo sapiens, UniProt P78356); assay: Trans-FI P kinase assay PIP4K2B (PIP4KtypeIIB inhibition assay); format: biochemical; conditions: Table 4; compounds listed under IC50 range headings; 100 uM GTP, 5 nM PIP4KIIB; read-out: Trans-FI P kinase assays: PIP4K2B IC50
T1 construct: made in house; host or cells: E. coli
T1 sequence (P78356 1-416): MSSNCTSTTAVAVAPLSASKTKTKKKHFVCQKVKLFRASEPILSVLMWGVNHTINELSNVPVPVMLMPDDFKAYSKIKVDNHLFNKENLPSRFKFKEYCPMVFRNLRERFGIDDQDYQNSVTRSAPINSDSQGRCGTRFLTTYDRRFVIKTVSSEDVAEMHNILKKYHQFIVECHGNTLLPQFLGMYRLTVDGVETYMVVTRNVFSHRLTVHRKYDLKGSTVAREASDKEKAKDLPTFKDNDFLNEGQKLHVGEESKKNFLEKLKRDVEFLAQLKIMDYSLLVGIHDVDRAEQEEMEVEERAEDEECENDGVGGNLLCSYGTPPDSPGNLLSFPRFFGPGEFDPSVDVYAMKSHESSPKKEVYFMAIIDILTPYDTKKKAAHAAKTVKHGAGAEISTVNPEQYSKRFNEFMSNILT
In short: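 Purified GST-PIP4KIIB (5 nM final), 1 h preincubation with compound at 27 C, then 2 h reaction with 100 uM GTP and 80 uM PI5P plus DOPE carrier lipid in pH 7.3 HEPES/MgCl2/Triton buffer with 5% DMSO. GDP read by Transcreener FI fluorescence against a calibration curve; IC50 from % no-inhibitor activity vs log concentration.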

GST tagged PIP4KtypeIIA = target: T2, GST tagged PIP4KtypeIIA (Homo sapiens, UniProt P48426); assay: ADP-glo kinase assay PIP4K 2A (PIP4KtypeIIA inhibition assay); format: biochemical; conditions: Table 3; compounds listed under IC50 range headings; 10 uM ATP, 0.5 nM PIP4KIIA
T2 construct: made in house; host or cells: E. coli
T2 sequence (P48426 1-406): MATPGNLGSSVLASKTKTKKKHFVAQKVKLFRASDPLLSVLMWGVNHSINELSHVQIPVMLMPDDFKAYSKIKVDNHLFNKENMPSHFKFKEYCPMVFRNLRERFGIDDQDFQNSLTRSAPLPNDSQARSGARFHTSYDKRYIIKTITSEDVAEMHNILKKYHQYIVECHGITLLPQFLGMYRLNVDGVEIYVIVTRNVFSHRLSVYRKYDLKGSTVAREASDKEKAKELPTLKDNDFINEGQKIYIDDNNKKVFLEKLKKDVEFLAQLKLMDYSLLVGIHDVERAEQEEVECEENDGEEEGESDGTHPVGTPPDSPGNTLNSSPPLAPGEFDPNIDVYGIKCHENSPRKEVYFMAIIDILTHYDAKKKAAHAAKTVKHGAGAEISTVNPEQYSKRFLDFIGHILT
In short: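 E. coli-expressed GST-PIP4KtypeIIA (0.5 nM final) was preincubated 1 h at 27 °C with compound (up to 4.8 μM, 5% DMSO) in PI5P/DOPE lipid in 50 mM HEPES pH 7.3 with 10 mM MgCl2. The reaction was started with 10 μM ATP (final) and run 1 h. ADP was read by ADP-Glo luminescence via a calibration curve, and IC50 was taken from % residual activity.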

CN(C)C(=O)c1cc2c(-c3cncc(-c4ccc(N5CCCC5=O)cc4)c3)cn(C)c2c(=O)n1C [Example 260, N,N,1,6-tetramethyl-7-oxo-3-(5-(4-(2-oxopyrrolidin-1-yl)phenyl)pyridin-3-yl)-6,7-dihydro-1H-pyrrolo[2,3-c]pyridine-5-carboxamide]
IC50 (GST tagged PIP4KtypeIIB): 0.1 to 1 µM
IC50 (GST tagged PIP4KtypeIIA): 0.1 to 1 µM

O=C(NCCc1ccc[nH]1)c1cc2c(-c3cncc(-c4ccc(N5CCCC5=O)cc4)c3)ccnc2[nH]1 [Example 261, N-(2-(1H-pyrrol-2-yl)ethyl)-4-(5-(4-(2-oxopyrrolidin-1-yl)phenyl)pyridin-3-yl)-1H-pyrrolo[2,3-b]pyridine-2-carboxamide]
IC50 (GST tagged PIP4KtypeIIB): 0.01 to 0.1 µM
IC50 (GST tagged PIP4KtypeIIA): 0.1 to 1 µM

CN(C)C(=O)c1cnc2c(c1)c(-c1cncc(-c3ccc(N4CCCC4=O)cc3)c1)c(C1CC1)n2C [Example 262, 2-cyclopropyl-N,N,1-trimethyl-3-(5-(4-(2-oxopyrrolidin-1-yl)phenyl)pyridin-3-yl)-1H-pyrrolo[2,3-b]pyridine-5-carboxamide]
IC50 (GST tagged PIP4KtypeIIB): 0.1 to 1 µM
IC50 (GST tagged PIP4KtypeIIA): 2.5 to 5 µM

Cn1c(C(N)=O)cc2c(-c3cncc(-c4ccc(N5CCCC5=O)cc4)c3)cn(C)c2c1=O [Example 263, 1,6-dimethyl-7-oxo-3-(5-(4-(2-oxopyrrolidin-1-yl)phenyl)pyridin-3-yl)-6,7-dihydro-1H-pyrrolo[2,3-c]pyridine-5-carboxamide]
IC50 (GST tagged PIP4KtypeIIB): 1 to 2.5 µM
IC50 (GST tagged PIP4KtypeIIA): 1 to 2.5 µM

O=C(NC1CC1c1ccccc1)c1cc2c(-c3cncc(-c4ccc(N5CCCC5=O)cc4)c3)ccnc2[nH]1 (centres unmarked) [Example 264, 4-(5-(4-(2-oxopyrrolidin-1-yl)phenyl)pyridin-3-yl)-N-(2-phenylcyclopropyl)-1H-pyrrolo[2,3-b]pyridine-2-carboxamide]
IC50 (GST tagged PIP4KtypeIIB): 0.01 to 0.1 µM
IC50 (GST tagged PIP4KtypeIIA): 0.1 to 1 µM

CC(C)c1c(-c2cncc(-c3ccc(N4CCCC4=O)cc3)c2)c2cc(C(=O)N(C)C)cnc2n1C [Example 266, 2-isopropyl-N,N,1-trimethyl-3-(5-(4-(2-oxopyrrolidin-1-yl)phenyl)pyridin-3-yl)-1H-pyrrolo[2,3-b]pyridine-5-carboxamide]
IC50 (GST tagged PIP4KtypeIIB): 1 to 2.5 µM
IC50 (GST tagged PIP4KtypeIIA): 2.5 to 5 µM

CC(C)c1[nH]c2ncc(C(=O)N(C)C)cc2c1-c1cncc(-c2ccc(N3CCCC3=O)cc2)c1 [Example 269, 2-isopropyl-N,N-dimethyl-3-(5-(4-(2-oxopyrrolidin-1-yl)phenyl)pyridin-3-yl)-1H-pyrrolo[2,3-b]pyridine-5-carboxamide]
IC50 (GST tagged PIP4KtypeIIB): 0.1 to 1 µM
IC50 (GST tagged PIP4KtypeIIA): 0.1 to 1 µM

CC(C)c1cc(=O)n2ncc(-c3cncc(-c4ccc(N5CCCC5=O)cc4)c3)c2[nH]1 [Example 281, 5-isopropyl-3-(5-(4-(2-oxopyrrolidin-1-yl)phenyl)pyridin-3-yl)pyrazolo[1,5-a]pyrimidin-7(4H)-one]
IC50 (GST tagged PIP4KtypeIIB): 1 to 2.5 µM
IC50 (GST tagged PIP4KtypeIIA): 1 to 2.5 µM

CN(C)C(=O)c1cnc2occ(-c3cncc(-c4ccc(N5CCCC5=O)cc4)c3)c2c1 [Example 282, N,N-dimethyl-3-(5-(4-(2-oxopyrrolidin-1-yl)phenyl)pyridin-3-yl)furo[2,3-b]pyridine-5-carboxamide]
IC50 (GST tagged PIP4KtypeIIB): 0.1 to 1 µM
IC50 (GST tagged PIP4KtypeIIA): 0.01 to 0.1 µM

O=C1CCCN1c1ccc(-c2cncc(-c3n[nH]c4ncc(C5CC5)cc34)c2)cc1 [Example 283, 1-(4-(5-(5-cyclopropyl-1H-pyrazolo[3,4-b]pyridin-3-yl)pyridin-3-yl)phenyl)pyrrolidin-2-one]
IC50 (GST tagged PIP4KtypeIIB): 0.01 to 0.1 µM
IC50 (GST tagged PIP4KtypeIIA): 0.01 to 0.1 µM

Cc1nn2c(=O)c(CCO)c(C)[nH]c2c1-c1cncc(-c2ccc(N3CCCC3=O)cc2)c1 [Example 284, 6-(2-hydroxyethyl)-2,5-dimethyl-3-(5-(4-(2-oxopyrrolidin-1-yl)phenyl)pyridin-3-yl)pyrazolo[1,5-a]pyrimidin-7(4H)-one]
IC50 (GST tagged PIP4KtypeIIB): 0.1 to 1 µM
IC50 (GST tagged PIP4KtypeIIA): 0.1 to 1 µM

COCc1cc(-c2cncc(-c3ccc(N4CCCC4=O)cc3)c2)n2nc(C)cc2n1 [Example 285, 1-(4-(5-(5-(methoxymethyl)-2-methylpyrazolo[1,5-a]pyrimidin-7-yl)pyridin-3-yl)phenyl)pyrrolidin-2-one]
IC50 (GST tagged PIP4KtypeIIB): 2.5 to 5 µM
IC50 (GST tagged PIP4KtypeIIA): 2.5 to 5 µM

Cc1nc(-c2cncc(-c3ccc(N4CCCC4=O)cc3)c2)c2sc(N3CCCCC3)nc2n1 [Example 286, 1-(4-(5-(5-methyl-2-(piperidin-1-yl)thiazolo[4,5-d]pyrimidin-7-yl)pyridin-3-yl)phenyl)pyrrolidin-2-one]
IC50 (GST tagged PIP4KtypeIIB): 0.1 to 1 µM
IC50 (GST tagged PIP4KtypeIIA): 0.01 to 0.1 µM

O=C(Nc1nccc(-c2cncc(-c3ccc(N4CCCC4=O)cc3)c2)n1)C1CCC1 [Example 287, N-(4-(5-(4-(2-oxopyrrolidin-1-yl)phenyl)pyridin-3-yl)pyrimidin-2-yl)cyclobutanecarboxamide]
IC50 (GST tagged PIP4KtypeIIB): 0.1 to 1 µM
IC50 (GST tagged PIP4KtypeIIA): 0.1 to 1 µM

CCc1c(C)[nH]c2c(-c3cncc(-c4ccc(N5CCCC5=O)cc4)c3)cnn2c1=O [Example 288, 6-ethyl-5-methyl-3-(5-(4-(2-oxopyrrolidin-1-yl)phenyl)pyridin-3-yl)pyrazolo[1,5-a]pyrimidin-7(4H)-one]
IC50 (GST tagged PIP4KtypeIIB): 0.1 to 1 µM
IC50 (GST tagged PIP4KtypeIIA): 0.1 to 1 µM

O=C1CCCN1c1ccc(-c2cncc(-c3ncnc4nc(C5CCC5)[nH]c34)c2)cc1 [Example 289, 1-(4-(5-(8-cyclobutyl-7H-purin-6-yl)pyridin-3-yl)phenyl)pyrrolidin-2-one]
IC50 (GST tagged PIP4KtypeIIB): 1 to 2.5 µM
IC50 (GST tagged PIP4KtypeIIA): 2.5 to 5 µM

COC(=O)c1cc2c(-c3cncc(-c4ccc(N5CCCC5=O)cc4)c3)c(C)cnc2[nH]1 [Example 290, methyl 5-methyl-4-(5-(4-(2-oxopyrrolidin-1-yl)phenyl)pyridin-3-yl)-1H-pyrrolo[2,3-b]pyridine-2-carboxylate]
IC50 (GST tagged PIP4KtypeIIB): 0.1 to 1 µM
IC50 (GST tagged PIP4KtypeIIA): 0.1 to 1 µM

CC(O)c1cnc2[nH]c(C3CC3)c(-c3cncc(-c4ccc(N5CCCC5=O)cc4)c3)c2c1 (centres unmarked) [Example 291, 1-(4-(5-(2-cyclopropyl-5-(1-hydroxyethyl)-1H-pyrrolo[2,3-b]pyridin-3-yl)pyridin-3-yl)phenyl)pyrrolidin-2-one]
IC50 (GST tagged PIP4KtypeIIB): 0.01 to 0.1 µM
IC50 (GST tagged PIP4KtypeIIA): 0.01 to 0.1 µM

O=C1CCCN1c1ccc(-c2cncc(-c3csc4ncccc34)c2)cc1 [Example 292, 1-(4-(5-(thieno[2,3-b]pyridin-3-yl)pyridin-3-yl)phenyl)pyrrolidin-2-one]
IC50 (GST tagged PIP4KtypeIIB): 0.1 to 1 µM
IC50 (GST tagged PIP4KtypeIIA): 0.1 to 1 µM

C[C@@H](O)c1cnc2c(c1)c(-c1cncc(-c3ccc(N4CCCC4=O)cc3)c1)cn2C [Example 293, (R)-1-(4-(5-(5-(1-hydroxyethyl)-1-methyl-1H-pyrrolo[2,3-b]pyridin-3-yl)pyridin-3-yl)phenyl)pyrrolidin-2-one]
IC50 (GST tagged PIP4KtypeIIB): 0.1 to 1 µM
IC50 (GST tagged PIP4KtypeIIA): 0.1 to 1 µM

C[C@H](O)c1cnc2c(c1)c(-c1cncc(-c3ccc(N4CCCC4=O)cc3)c1)cn2C [Example 294, (S)-1-(4-(5-(5-(1-hydroxyethyl)-1-methyl-1H-pyrrolo[2,3-b]pyridin-3-yl)pyridin-3-yl)phenyl)pyrrolidin-2-one]
IC50 (GST tagged PIP4KtypeIIB): 0.1 to 1 µM
IC50 (GST tagged PIP4KtypeIIA): 0.1 to 1 µM

CN(C)S(=O)(=O)c1cnc2[nH]cc(-c3cncc(-c4ccc(N5CCCC5=O)cc4)c3)c2c1 [Example 295, N,N-dimethyl-3-(5-(4-(2-oxopyrrolidin-1-yl)phenyl)pyridin-3-yl)-1H-pyrrolo[2,3-b]pyridine-5-sulfonamide]
IC50 (GST tagged PIP4KtypeIIB): 1 to 2.5 µM
IC50 (GST tagged PIP4KtypeIIA): 0.1 to 1 µM

COC(=O)c1cc2c(-c3cncc(-c4ccc(N5CCCC5=O)cc4)c3)c(Cl)cnc2[nH]1 [Example 296, methyl 5-chloro-4-(5-(4-(2-oxopyrrolidin-1-yl)phenyl)pyridin-3-yl)-1H-pyrrolo[2,3-b]pyridine-2-carboxylate]
IC50 (GST tagged PIP4KtypeIIB): 0.1 to 1 µM
IC50 (GST tagged PIP4KtypeIIA): 0.1 to 1 µM

O=C(N[C@H]1C[C@H](c2ccccc2)C1)c1cc2c(-c3cncc(-c4ccc(N5CCCC5=O)cc4)c3)ccnc2[nH]1 [Example 297, 4-(5-(4-(2-oxopyrrolidin-1-yl)phenyl)pyridin-3-yl)-N-((1r,3r)-3-phenylcyclobutyl)-1H-pyrrolo[2,3-b]pyridine-2-carboxamide]
IC50 (GST tagged PIP4KtypeIIB): > 5 µM
IC50 (GST tagged PIP4KtypeIIA): 1 to 2.5 µM

O=C(NCCc1cncs1)c1cc2c(-c3cncc(-c4ccc(N5CCCC5=O)cc4)c3)ccnc2[nH]1 [Example 298, 4-(5-(4-(2-oxopyrrolidin-1-yl)phenyl)pyridin-3-yl)-N-(2-(thiazol-5-yl)ethyl)-1H-pyrrolo[2,3-b]pyridine-2-carboxamide]
IC50 (GST tagged PIP4KtypeIIB): 0.01 to 0.1 µM
IC50 (GST tagged PIP4KtypeIIA): 0.1 to 1 µM
